# Experimental data: PubChem BioAssay (NCI)
#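 1) Cells in 96-well plates. 2) Compound, 48 h, 5 concentrations. 3) Linear interpolation between surrounding doses. 4) Unreached endpoint = highest concentration. TGI denotes the concentration required for complete inhibition of growth.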
# How the values were obtained:
# Assay in all cases: NCI-60 cell line screen, 48 h
# MDA-N = test system: MDA-N
# UO-31 renal = test system: UO-31 renal
# MOLT-4 leukemia = test system: MOLT-4 leukemia
# SF-268 CNS = test system: SF-268 CNS
# HOP-62 NSCLC = test system: HOP-62 NSCLC
# NCI-H23 lung = test system: NCI-H23 lung
# HCC-2998 colon = test system: HCC-2998 colon
# SK-MEL-5 melanoma = test system: SK-MEL-5 melanoma
# NCI-H460 lung = test system: NCI-H460 lung
# NCI-H226 lung = test system: NCI-H226 lung
# OVCAR-5 ovarian = test system: OVCAR-5 ovarian
# HCT-15 colon = test system: HCT-15 colon
Structure (SMILES),TGI (MDA-N),TGI (UO-31 renal),TGI (MOLT-4 leukemia),TGI (SF-268 CNS),TGI (HOP-62 NSCLC),TGI (NCI-H23 lung),TGI (HCC-2998 colon),TGI (SK-MEL-5 melanoma),TGI (NCI-H460 lung),TGI (NCI-H226 lung),TGI (OVCAR-5 ovarian),TGI (HCT-15 colon)
O=C(n1c(=O)n(-c2ccc(Cl)cc2)c(=O)n1C(=O)C(Cl)(Cl)Cl)C(Cl)(Cl)Cl,> 100 µM,> 100 µM,> 100 µM,> 100 µM,> 100 µM,> 100 µM,> 100 µM,> 100 µM,> 100 µM,–,–,–
O=C1NC(=NC2CCCCC2)C2(CCN(CCCC3(c4ccc(F)cc4)OCCO3)CC2)N1c1ccccc1,28.7 µM,25.9 µM,36.7 µM,42.2 µM,31.8 µM,34.3 µM,–,28.2 µM,–,44.3 µM,30.7 µM,36.9 µM
CC(=O)OC[C@@H](OC(C)=O)[C@@H](OC(C)=O)[C@H]1OC[C@@H]2C[C@H]([C@H]1OC(C)=O)N(Cc1ccccc1)O2,> 100 µM,> 100 µM,> 100 µM,> 100 µM,> 100 µM,> 100 µM,> 100 µM,> 100 µM,> 100 µM,> 100 µM,> 100 µM,–
OC(C/C(=N\N=C(/CC(O)(C(F)(F)F)C(F)(F)F)c1ccccc1)c1ccccc1)(C(F)(F)F)C(F)(F)F,> 10 µM,–,> 10 µM,> 10 µM,> 10 µM,> 10 µM,> 10 µM,> 10 µM,> 10 µM,> 10 µM,> 10 µM,> 10 µM
CCCCCCCSCC1C(=O)C23C(O)C1CCC2C12COC3(O)C(O)C1C(C)(C)CCC2O (configuration not stated),–,23.5 µM,28.2 µM,33.9 µM,37.9 µM,34 µM,31.4 µM,25.1 µM,29.8 µM,33 µM,31.4 µM,22.4 µM
CC(C)(C)N(Cc1ccoc1)C(=O)/C=C\S(=O)c1ccccc1 (configuration not stated),44.2 µM,27.6 µM,> 100 µM,> 100 µM,36.6 µM,32.3 µM,34.3 µM,27.4 µM,–,48.6 µM,59.2 µM,51.4 µM
COC1=CC(=O)[C@]2(C)[C@H](C1=O)C(C)[C@H]2c1ccccc1 (some centres not stated),–,> 100 µM,> 100 µM,> 100 µM,> 100 µM,> 100 µM,> 100 µM,> 100 µM,> 100 µM,> 100 µM,> 100 µM,> 100 µM
O=C1c2ccccc2-c2c1c(-c1ccccc1)c1n2C2(C(=O)c3ccccc3C2=O)C2C(=O)N(c3ccccc3)C(=O)C12 (configuration not stated),65.3 µM,79.3 µM,> 100 µM,65.6 µM,63.7 µM,37.4 µM,–,35.3 µM,36.9 µM,43.5 µM,> 100 µM,42.8 µM
Cc1ccc(S(=O)(=O)NC2=NS(=O)(=O)c3cc(C)c(Cl)cc3S2)cc1,–,> 100 µM,> 100 µM,> 100 µM,> 100 µM,> 100 µM,> 100 µM,> 100 µM,> 100 µM,> 100 µM,> 100 µM,> 100 µM
CC[N+]1(C)CCC(O)(/C=C/c2ccc(Cl)cc2)C(C(=O)/C=C/c2ccc(Cl)cc2)C1 (configuration not stated),> 34.4 µM,20.2 µM,6.52 µM,> 60.6 µM,39.3 µM,30.3 µM,45.1 µM,> 45.8 µM,> 28.2 µM,–,> 53.7 µM,> 51.6 µM
